Assay results from US10913781B2, “Pepducin design and use” (Tufts Medical Center, Inc., priority 2011, dated 2021).
Like-named read-outs stand apart in the source and are kept apart here. Peptide text beside a SMILES is read from it. * marks the point of attachment. Palmitoyl = CCCCCCCCCCCCCCCC(=O)*

Tests used:
VEGF-A production = experiment: Thrombin-dependent VEGF-A production in A549 cells (ELISA); format: cell-based, human; conditions: A549, 18 hours thrombin treatment
Procedure: (§1) FIG. 13 illustrates that monotherapy with PAR1-i3 pepducins inhibits tumor progression of A549 xenografts. (A) and (B): A549 mice treated with vehicle, P1pal-7, P1pal-i1-11, P1pal-10S, X1/2-i1, X1/2-i3, or Avastin. Each time point represents the mean±SE. (C): Final tumor volume at the completion of the experiment was calculated as a percentage of untreated vehicle control. (D): Serum-starved A549 adenocarcinoma cells were pretreated with P1pal-7, P1pal-10S, P1pal-i1-11, vehicle, or PD98059 and stimulated with thrombin. VEGF production was assessed by enzyme-linked immunosorbent assay. Data are expressed as mean±SD (*P<0.05, **P<0.01).
Because the i3-based P1pal-7 pepducin had similar efficacy as Avastin in suppressing lung tumor growth of A549 xenografts, VEGF-A production was measured in the A549 tumor cells after 18 hours thrombin treatment. […] Unlike in ovarian cancer, no increase was found in PAR1-mediated IL-8 production in A549 cells, consistent with the observed lack of efficacy of CXCR1/2 pepducins in the A549 xenograft models. These xenograft data provide support for the role of a novel PAR1-ERK1/2-VEGF paracrine pathway that is an effective therapeutic target in the A549 adenocarcinoma lung cancer model.

PAR1 [1] = target: T1, PAR1 (Homo sapiens, UniProt P25116); experiment: ERK1/2 phosphorylation in A549 cells (thrombin or […]), Western blot; format: cell-based; design: endogenous in cells; host or cells: A549, HOP62, H1299, H522, H226, HOP92 lung carcinoma lines
T1 sequence (P25116 22-425): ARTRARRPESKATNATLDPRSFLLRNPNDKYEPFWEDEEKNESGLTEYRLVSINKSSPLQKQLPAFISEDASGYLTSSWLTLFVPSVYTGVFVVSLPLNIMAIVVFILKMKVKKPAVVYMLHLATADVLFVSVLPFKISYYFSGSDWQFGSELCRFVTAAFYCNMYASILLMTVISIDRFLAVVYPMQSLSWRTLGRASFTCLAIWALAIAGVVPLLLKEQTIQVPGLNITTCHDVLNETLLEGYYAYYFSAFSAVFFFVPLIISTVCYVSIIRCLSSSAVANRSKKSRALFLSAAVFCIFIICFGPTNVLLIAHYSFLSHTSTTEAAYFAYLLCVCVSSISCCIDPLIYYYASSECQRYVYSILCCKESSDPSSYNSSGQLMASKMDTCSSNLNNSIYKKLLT
Procedure: FIG. 9 illustrates that differential inhibition of PAR1-ERK activation by i3- and i1-derived PAR1 pepducins. (A-C): Western blots of lysates from A549 cells untreated, or treated with thrombin, SLIGKV (SEQ ID NO:29), or AYPGKF (SEQ ID NO:5). Indicated samples were pretreated with various concentrations (0.1 to 3 μmol/L) of P1pal-7, P1pal-10S, or P1pal-i1-11 before stimulation and immunoblotted with anti-phospho-ERK. (D-F): Quantification of the Western blots in (A-C) were conducted by densitometry and results are expressed relative to maximum (fold max) phosphorylation of pERK.
(B): A549 cells stimulated with 10 μM […] over 2 h. A549 cells pretreated with 0.1 μM P1pal-7 and stimulated with 10 μM […] (SEQ ID NO:30) for 5 min. Total ERK was used as a loading control.
Last, there has been a great deal of interest in understanding the mechanism of PAR1-mediated activation of MAP kinase cascade and PAR1-dependent cellular growth and differentiation, proliferation and gene transcription. […] The effects of i1 versus i3 PAR1 pepducins on ERK1/2 activation were examined in the A549 lung adenocarcinoma cell line. […] Inhibition experiments with a range of pepducin concentrations (0.1-3 μM) were conducted. […] The […] (SEQ ID NO:30) peptide gave a rapid and transient ERK1/2 phosphorylation signal that peaked at 5-15 min after stimulation. […] To determine the specificity of the PAR1 pepducin inhibitors, their effects on the closely related PAR2 and PAR4 receptors were also tested.

A549 xenografts = format: in vivo, mouse; conditions: mouse, in vivo
Procedure: as §1
PAR1 expression level is correlated with reduced survival of patients with NSCLC. To define the relative importance of PAR1 in lung tumor progression, in vivo mouse models were used. […] An A549 lung adenocarcinoma xenograft model in nude mice was used to evaluate monotherapy with P1pal-7, P1pal-10S, P1pal-i1-11, or the VEGF antagonist Avastin.

[2] = test system: A549, HOP62, and HOP92 lung carcinoma cell lines; experiment: Cytotoxicity/cell viability of lung carcinoma cells (MIT assay); format: cell-based, human; conditions: 3-day period
PAR1 [3] = target: T1, PAR1; experiment: Migration of primary patient lung tumor cells; format: cell-based; design: endogenous in cells; host or cells: A549, HOP62, H1299, H522, H226, HOP92 lung carcinoma lines
Procedure: FIG. 12 illustrates that PAR1 is a promigratory factor in lung cancer cells. (A-F): Inhibition of lung cancer migration in adenocarcinomas A549, HOP62, H1299 and H522, H226 squamous, and HOP92 large cell using PAR1 pepducins. Pepducins at […] (P1pal-7, P1pal-10S, P1pal-i1-11, or negative control P1pal-19EE) were added to the lower well. (G): Cell from primary lung tumors or nonmalignant control were pretreated with PAR1 pepducins and migration was determined (*P<0.05, **P<0.01).
Further experiments were carried out to determine whether migration of the primary carcinoma cell lines isolated from lung tumors could be inhibited by PAR1 pepducins (FIG. 12G). […] Likewise, the RWJ-56110 small-molecule antagonist of PAR1 (Andrade-Gordon, et al., Proc. Natl Acad Sci USA, 96 (1999), pp. 12257-12262) suppressed up to 55% of the migration of primary lung tumor cells toward NIH-3T3 conditioned media. The PAR1 antagonist pepducin P1pal-7 and P1pal-i1-11 had no effect on the low-expressing PAR1 cell line derived from benign lung tissue, which migrated poorly (FIG. 12G).

[4] = Pharmacokinetics of PAR1 pepducins in CF-1 mice, plasma LC/MS/MS; format: in vivo, mouse; conditions: for Cmax: read-out: Peak plasma level
Procedure: FIG. 14 illustrates pharmacokinetics of PAR1 pepducins. (A): CF-1 mice were injected subcutaneously with P1pal-7 (3 mg/kg, open circles), P1pal-7 (10 mg/kg, closed circles), P1pal-10S (10 mg/kg, gray circles), or P1pal-i1-11 (10 mg/kg, open squares) in 20% dimethyl sulfoxide and blood was collected at indicated time points (n=3). Pepducin levels in plasma were quantified with LC/MS/MS. (B): Daily (D1 to D6) plasma levels of P1pal-7 after subcutaneous injection of 10 mg/kg P1pal-7 were measured at 1 hour (open circles) and 24 hours (open squares).
Pharmacokinetics of plasma levels of P1pal-7, P1pal-10S, and P1pal-i1-11 at 30 minutes, and at 1, 2, 4, 6, 8, and 16 hours was measured by LC/MS/MS to determine steady-state pepducin drug levels and the rate of elimination from mice. Subcutaneous injections of P1pal-7 (3 mg/kg or 10 mg/kg) into wild-type CF-1 mice (25 to 30 g) was followed by blood collection at various time points from the vena cava. […] Residual P1pal-7 levels were 10 nmol/L at the 16-hour time point. After the 4-hour plateau, the elimination rate was linear from 4 to 16 hours. The peak plasma level of 3 mg/kg P1pal-7 reached 0.6 μmol/L at 2 hours and elimination was linear between 2 hours and 16 hours. P1pal-10S (10 mg/kg) gave similar peak plasma level of 1.0 μmol/L as P1pal-7 (10 mg/kg) at 1 hour.
Lastly, the peak plasma level of P1pal-7 (10 mg/kg) was measured before and 1 hour after once-daily subcutaneous injection over 6 days to determine whether the peak plasma levels were consistent on daily administration.

Row | Block of PRSFLLRN-induced phospho-ERK signal (PAR1 [1]; 0.1 μM pepducin, 10 μM PRSFLLRN, 5 min, A549) | Effect on thrombin-induced ERK1/2 phosphorylation (PAR1 [1]; A549 cells, pepducin 0.1-3 μM) | Effect on migration of low-expressing PAR1 cell line derived from benign lung tissue (PAR1 [3]) | Duration of peak plasma level ([4]; 10 mg/kg s.c.) [h] | Cmax ([4]; CF-1, mouse, plasma, sc, 3 mg/kg s.c.) [nM] | level at time molar at 6 h ([4]; CF-1, mouse, plasma, sc, 10 mg/kg s.c., read-out: Plasma level at the 6-hour time point) [nM] | level at time molar at 16 h ([4]; CF-1, mouse, plasma, sc, 10 mg/kg s.c., read-out: Residual plasma level at the 16-hour time point) [nM] | Accumulation in plasma after daily dosing ([4]; daily subcutaneous dosing, mouse) | Cmax ([4]; mouse, plasma, sc, 10 mg/kg s.c., CF-1 mice) [nM] | Inhibition of migration of primary lung tumor cells (PAR1 [3]; primary lung tumors) | Structure (SMILES) | Effect on thrombin-dependent VEGF-A production (VEGF-A production) | Inhibition of tumor progression/growth (final tumor volume vs vehicle) (A549 xenografts) [%] | Sensitivity of A549 cells (cytotoxicity) [2]
1 | completely block | complete inhibition | no effect | 4 | 600 | 200 | 10 | does not accumulate in plasma | 1100 | – | CCCCCCCCCCCCCCCC(=O)N[C@@H](CCCCN)C(=O)N[C@@H](CCCCN)C(=O)N[C@@H](CO)C(=O)N[C@@H](CCCNC(=N)N)C(=O)N[C@@H](C)C(=O)N[C@@H](CC(C)C)C(=O)N[C@@H](Cc1ccccc1)C(N)=O [P1pal-7] (Palmitoyl-KKSRALF-NH2) | completely blocked | 75 | most sensitive
2 | – | – | – | – | – | – | – | – | – | up to 55% | NCC[C@H](NC(=O)[C@H](Cc1ccc(F)c(F)c1)NC(=O)Nc1ccc2c(CN3CCCC3)cn(Cc3c(Cl)cccc3Cl)c2c1)C(=O)NCc1ccccc1 [RWJ-56110, reference compound] | – | – | –
